From PubChem BioAssay (NCI)
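48-hour exposure; five concentrations; linearly interpolated endpoints. At the TGI there is no net growth.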

Columns and labels:
Assay in all cases: DTP human tumour cell line panel, 48 h
[1] = tested on: MOLT-4 leukemia
[2] = tested on: SN12C renal
[3] = tested on: 786-0 renal
[4] = tested on: SR leukemia
[5] = tested on: SF-295 CNS
[6] = tested on: SF-268 CNS
[7] = tested on: UO-31 renal
[8] = tested on: IGROV1 ovarian
[9] = tested on: MALME-3M melanoma
[10] = tested on: PC-3 prostate
[11] = tested on: SW-620 colon

| Structure (SMILES) | TGI [1] | TGI [2] | TGI [3] | TGI [4] | TGI [5] | TGI [6] | TGI [7] | TGI [8] | TGI [9] | TGI [10] | TGI [11] |
| --- | --- | --- | --- | --- | --- | --- | --- | --- | --- | --- | --- |
| O=C1/C(=C/c2ccc(O)cc2)NC(=S)N1CN1CCCCC1 | > 100 µM | > 100 µM | > 100 µM | > 100 µM | > 100 µM | > 100 µM | > 100 µM | > 100 µM | > 100 µM | > 100 µM | > 100 µM |
| CC1=C(C)C(=O)OC(C(C)(O)C2(O)CCC3(O)C4CC(Cl)C5(O)C(O)C=CC(=O)C5(C)C4CCC32C)C1 (configuration not stated) | 32.8 µM | > 100 µM | > 100 µM | 37.1 µM | > 100 µM | > 100 µM | > 100 µM | > 100 µM | > 100 µM | > 100 µM | 59.1 µM |
| c1ccc(Cc2cccc3cc(-c4ccc(-c5ccccc5)cc4)[nH]c23)cc1 | > 100 µM | > 100 µM | > 100 µM | 47 µM | > 100 µM | > 100 µM | > 100 µM | > 100 µM | 54 µM | > 100 µM | > 100 µM |
| CN(c1c(Cl)cccc1Cl)S(=O)(=O)c1ccccc1[N+](=O)[O-] | > 100 µM | > 100 µM | > 100 µM | > 100 µM | > 100 µM | > 100 µM | > 100 µM | > 100 µM | > 100 µM | > 100 µM | > 100 µM |
| Cc1nn2c(N)cc(=O)nc2nc1/C=C/c1ccc(N(C)C)cc1 | > 100 µM | > 100 µM | > 100 µM | > 100 µM | > 100 µM | > 100 µM | > 100 µM | > 100 µM | 49.8 µM | > 100 µM | > 100 µM |
| CCN(CC)CCn1ncc2ccc3c(c(=O)c4cccnc4n3CCN(CC)CC)c21 | 1.43 µM | 8.15 µM | 4.6 µM | 1.3 µM | > 9.52 µM | 4.66 µM | > 8.52 µM | 4.22 µM | 3.32 µM | 3.85 µM | > 6.66 µM |
| COc1cc2c(cc1C)NC(=O)/C2=C/c1c(Cl)[nH]c2cc(C)c(OC)cc12 | 17.8 µM | 8.18 µM | 18.2 µM | 12 µM | 6.18 µM | 18.7 µM | 23.4 µM | 16.1 µM | 25.4 µM | 21.7 µM | 19.7 µM |
| O=C(ON=c1c2ccccc2ccc2ccccc12)c1cc([N+](=O)[O-])cc([N+](=O)[O-])c1 | > 100 µM | > 100 µM | > 100 µM | > 100 µM | > 100 µM | > 100 µM | > 100 µM | > 100 µM | 77.4 µM | > 100 µM | > 100 µM |
| C/C(Cl)=N\OC(=O)Nc1ccc([N+](=O)[O-])cc1 | 3.97 µM | 35.1 µM | 18.4 µM | 74.2 µM | 31.8 µM | 41.8 µM | 11.4 µM | 38.5 µM | 7.95 µM | 29.9 µM | 4.06 µM |
| O=C1C=C2S[C@H]3C[C@]2(C=C1Br)c1c(c(O)c2c4c1=NCCC=4C=N2)N3 | 0.418 µM | 2.48 µM | 2.14 µM | > 100 µM | 2.83 µM | 2.91 µM | 2.94 µM | 2.92 µM | 0.261 µM | 4.52 µM | 0.237 µM |
| COc1ccc2c(c1)/C(=C(\C(Cl)=C(\Cl)N1CCCCC1)[N+](=O)[O-])N2 | > 100 µM | > 100 µM | > 100 µM | > 100 µM | > 100 µM | > 100 µM | > 100 µM | > 100 µM | > 100 µM | > 100 µM | > 100 µM |
| CSC1=N/C(=C\c2cccs2)C(=O)N1CN1CCOCC1 | > 100 µM | > 100 µM | > 100 µM | > 100 µM | > 100 µM | > 100 µM | > 100 µM | > 100 µM | > 100 µM | > 100 µM | > 100 µM |
| CCCCc1ccc(Nc2nc3c(ncn3C3OC(COC(C)=O)C(OC(C)=O)C3OC(C)=O)c(=O)[nH]2)cc1 (configuration not stated) | 37.8 µM | 42.3 µM | 32 µM | 35.9 µM | 53.1 µM | 37.7 µM | > 100 µM | 37.7 µM | 36.8 µM | 48.1 µM | 48.2 µM |
| CC(C)(C)OC(=O)N1C(C2=COc3ccccc3O2)=COc2ccccc21 | 54 µM | > 100 µM | > 100 µM | 53.3 µM | 83.5 µM | 64.4 µM | > 100 µM | > 100 µM | 58.1 µM | > 100 µM | 67.8 µM |
| CCOC(=O)c1ccc(N=C2SC(=S)N(c3ccc(F)cc3)C2=Nc2ccc(C(=O)OCC)cc2)cc1 | 35.1 µM | 33.6 µM | 31.6 µM | 29.3 µM | > 100 µM | > 37.6 µM | 28 µM | 30.8 µM | 36.6 µM | 40.6 µM | 30 µM |
| O=[N+]([O-])c1cc2n[nH]nc2c2nonc12 | 95.6 µM | > 100 µM | > 100 µM | > 100 µM | > 100 µM | > 100 µM | 38.6 µM | > 100 µM | > 100 µM | > 100 µM | > 100 µM |
| C=C1CC(OC(C)=O)/C=C(/C)CCC(C(C)(C)O)CC1O (configuration not stated) | > 100 µM | > 100 µM | > 100 µM | > 100 µM | > 100 µM | > 100 µM | > 100 µM | > 100 µM | > 100 µM | > 100 µM | > 100 µM |
| Oc1c(C(O)(c2ccccc2)c2ccc3ccccc3c2O)ccc2ccccc12 | 5.56 µM | 23.1 µM | > 69 µM | 10.7 µM | 47.9 µM | 28.4 µM | 24.7 µM | 24.7 µM | 26.4 µM | 20.7 µM | 41.8 µM |
| COc1ccc2c(c1)/C(=C(\C(Cl)=C(Cl)Cl)[N+](=O)[O-])N2 | 97.1 µM | > 100 µM | > 100 µM | 49.3 µM | > 100 µM | > 100 µM | > 100 µM | > 100 µM | > 100 µM | > 100 µM | > 100 µM |
| COC(=O)N1CC[C@@H]2CCC=C(c3cccc4c3OCO4)[C@@H]21 | > 100 µM | > 100 µM | > 100 µM | > 100 µM | > 100 µM | > 100 µM | > 100 µM | > 100 µM | > 100 µM | > 100 µM | > 100 µM |
| O=c1oc2ncccc2n1Cc1ccc([N+](=O)[O-])cc1 | > 100 µM | > 100 µM | > 100 µM | > 100 µM | > 100 µM | > 100 µM | > 100 µM | > 100 µM | > 100 µM | > 100 µM | > 100 µM |
| CCN(CC)CCN1c2ccccc2Sc2ccc3ccccc3c21 | 7.66 µM | 24.4 µM | 23.9 µM | 20.9 µM | 26.4 µM | 35.1 µM | 19.1 µM | 24.5 µM | 32.5 µM | 19.5 µM | 24.4 µM |
| O=C(O)CC(NC(=O)C(F)(F)F)C(=O)NC1Cc2ccccc2OC1=O (configuration not stated) | > 100 µM | > 100 µM | > 100 µM | > 100 µM | > 100 µM | > 100 µM | > 100 µM | > 100 µM | > 100 µM | > 100 µM | > 100 µM |
| CN1CN(c2ccccc2)C2(CCNCC2)C1=O | > 100 µM | > 100 µM | > 100 µM | > 100 µM | > 100 µM | > 100 µM | > 100 µM | > 100 µM | > 100 µM | > 100 µM | > 100 µM |
| Cc1csc2c(P(=O)(OC(C)C)OC(C)C)c(-c3ccccc3)cn12 | 31.4 µM | 32.1 µM | 30.7 µM | 36.7 µM | 31.1 µM | 32 µM | 31.8 µM | 31.9 µM | 36.1 µM | 28.7 µM | 35.8 µM |
| CCOC(=O)C(SCCO)C(C(=O)OCC)n1ccc(N)nc1=O (configuration not stated) | > 100 µM | > 100 µM | > 100 µM | > 100 µM | > 100 µM | > 100 µM | > 100 µM | > 100 µM | > 100 µM | > 100 µM | > 100 µM |
| COC(=O)C12CCC(C(=O)OC)(Cc3c(c4ccccc4n3S(=O)(=O)c3ccccc3)C1)C2=O (configuration not stated) | > 100 µM | > 100 µM | > 69.6 µM | > 100 µM | > 100 µM | > 100 µM | > 100 µM | > 100 µM | > 100 µM | > 100 µM | > 100 µM |
